Results as given in PubChem BioAssay (NCI).
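All cell lines were grown in 96-well plates and treated with compound for 48 hours. At the TGI there is no net growth.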

Key:
Assay in all cases: DTP human tumour cell line panel, 48 h
ACHN renal = test system: ACHN renal
RPMI-8226 leukemia = test system: RPMI-8226 leukemia
SNB-19 CNS = test system: SNB-19 CNS
SK-MEL-2 melanoma = test system: SK-MEL-2 melanoma
COLO 205 colon = test system: COLO 205 colon
SF-295 CNS = test system: SF-295 CNS
HL-60(TB) leukemia = test system: HL-60(TB) leukemia
UACC-62 melanoma = test system: UACC-62 melanoma
HCC-2998 colon = test system: HCC-2998 colon
PC-3 prostate = test system: PC-3 prostate

SMILES | TGI (ACHN renal) | TGI (RPMI-8226 leukemia) | TGI (SNB-19 CNS) | TGI (SK-MEL-2 melanoma) | TGI (COLO 205 colon) | TGI (SF-295 CNS) | TGI (HL-60(TB) leukemia) | TGI (UACC-62 melanoma) | TGI (HCC-2998 colon) | TGI (PC-3 prostate)
N=C(N)c1ccc(N=Nc2c(O)c(C(=O)Nc3ccccc3)cc3ccccc23)cc1 | > 53.6 µM | 77.7 µM | 51.5 µM | > 100 µM | > 76.9 µM | > 100 µM | 55.1 µM | > 100 µM | > 59.7 µM | > 89.2 µM
CC1(O)CC23CC(O)C4(O)C(CC(O)C4(C)C)C(C)(O)C2CCC1C3O (centres undefined) | > 100 µM | – | > 100 µM | > 100 µM | > 100 µM | > 100 µM | > 100 µM | > 100 µM | > 100 µM | > 100 µM
CC(C)(C)C(=O)C(N)C(=O)C(C)(C)C | > 100 µM | > 100 µM | > 100 µM | > 100 µM | > 100 µM | > 100 µM | > 100 µM | > 100 µM | > 100 µM | > 100 µM
Nc1ncnc2c1ncn2CCCNO | > 100 µM | > 100 µM | > 100 µM | > 100 µM | > 100 µM | > 100 µM | > 100 µM | > 100 µM | > 100 µM | > 100 µM
Cc1cc(S(=O)(=O)NC2=NCc3c(F)cccc3N2)c(S)cc1Cl | > 100 µM | > 100 µM | > 100 µM | > 100 µM | > 100 µM | > 100 µM | > 100 µM | > 100 µM | > 100 µM | > 100 µM
O=C(CCCCCCCCC(=O)N1C(=O)CC(=O)N(c2ccc(Cl)cc2)C1=S)N1C(=O)CC(=O)N(c2ccc(Cl)cc2)C1=S | > 100 µM | > 100 µM | > 100 µM | > 100 µM | > 100 µM | > 100 µM | – | > 100 µM | > 100 µM | > 100 µM
CC(C)NC(=O)OCCN=C1c2ccccc2C(Br)C(Br)c2ccccc21 (centres undefined) | 25.4 µM | 23.1 µM | 43.3 µM | > 54.1 µM | 18.9 µM | 42 µM | 2.6 µM | 31.1 µM | 49.8 µM | > 48.8 µM
N#CC(c1cc(Cl)ncn1)c1nc2cc(C(F)(F)F)ccc2s1 (centres undefined) | 59.6 µM | > 100 µM | 22.6 µM | – | 10.8 µM | 29.2 µM | – | – | – | –
CCCCCCCCCCCCCCCCOC[C@H](COC(c1ccccc1)(c1ccccc1)c1ccccc1)O[P+](=S)OC (some centres undefined) | > 100 µM | > 100 µM | > 100 µM | > 100 µM | > 100 µM | > 100 µM | > 100 µM | > 100 µM | – | > 100 µM
CC1=NN(c2cc(Cl)c(S(=O)(=O)O)cc2Cl)C2(C1)C(Cl)C(=O)N2c1nc2ccccc2s1 (centres undefined) | > 100 µM | > 100 µM | > 100 µM | > 100 µM | > 100 µM | – | > 100 µM | > 100 µM | > 100 µM | > 100 µM
COC(=O)c1sc2c(Cl)c(Cl)sc2c1Cl | > 100 µM | – | > 100 µM | > 100 µM | > 100 µM | > 100 µM | > 100 µM | > 100 µM | > 100 µM | > 100 µM
COc1ccc(C=C2C(C)=NN(c3cccc(Cl)c3)C23C(Cl)C(=O)N3c2nc3ccccc3s2)cc1 (centres undefined) | 51.6 µM | > 100 µM | – | 38.9 µM | – | 50.9 µM | 6.62 µM | – | 7.42 µM | 39.3 µM
C[C@]12CC[C@H]3[C@@H](CCC4=C/C(=N/OCCN5CCCCC5)CC[C@@]43C)[C@@H]1CC[C@@H]2O | 51.6 µM | 24.9 µM | 18.5 µM | 29.8 µM | 47.3 µM | 29.3 µM | 8.05 µM | – | 27.4 µM | 45.6 µM
O=C(c1ccccc1)C1C(c2ccccc2[N+](=O)[O-])N1C1CCCCC1 (centres undefined) | 3.74 µM | 4.68 µM | 32.3 µM | 18.6 µM | 20.4 µM | 35.3 µM | – | 20.6 µM | 18 µM | 15.9 µM
c1csc(-c2cc(-c3ccsc3)cs2)c1 | > 100 µM | > 100 µM | – | > 100 µM | > 100 µM | > 100 µM | > 100 µM | > 100 µM | > 100 µM | > 100 µM
Cc1c(-c2ccccc2)oc(=O)c2ccccc12 | 98.2 µM | 36.5 µM | > 100 µM | 38.5 µM | 33.7 µM | 40.2 µM | – | 33 µM | 37.8 µM | 72.1 µM
CCn1c(-c2cc3ccccc3cc2OC(C)=O)n[nH]c1=S | > 100 µM | 44.6 µM | – | 41.3 µM | – | > 100 µM | 19.5 µM | – | 38.5 µM | 39.2 µM
CN(Cc1ccccc1)C(=S)S | > 100 µM | – | – | > 100 µM | > 100 µM | > 100 µM | 59.1 µM | > 100 µM | > 100 µM | –
COc1cc(CNc2nc3c(NC(C)=O)cc(C(F)(F)F)cc3nc2-c2ccccc2)cc(OC)c1OC | > 100 µM | > 100 µM | > 100 µM | > 100 µM | > 100 µM | > 100 µM | – | > 100 µM | > 100 µM | –
Nc1ncnc2c1ncn2C1C(O)C=C(CO)C1O (centres undefined) | – | > 625 µM | > 625 µM | > 625 µM | > 625 µM | > 625 µM | > 625 µM | > 625 µM | > 625 µM | –
CCOC(=O)/C(=C/c1cn(C(C)=O)c2ccccc12)P(=O)(OC)OC | > 100 µM | 50.7 µM | – | > 100 µM | – | > 100 µM | 48.4 µM | – | – | > 100 µM
CC1OC23CCCCC2C(C#N)(C#N)C1(C#N)C(=N)O3 (centres undefined) | 42.8 µM | – | 65.2 µM | 43.5 µM | 38.5 µM | > 100 µM | 22.1 µM | – | 50.1 µM | 69.2 µM
FC(F)(Sc1ncccn1)c1nc2ccccc2o1 | > 100 µM | > 100 µM | – | > 100 µM | > 100 µM | > 100 µM | – | > 100 µM | > 100 µM | > 100 µM
COc1cc(C2C3=C(NC(=O)C2C#N)c2ccc4ccccc4c2OCC3)cc(OC)c1OC (centres undefined) | 30.2 µM | > 100 µM | > 100 µM | 59.4 µM | 33.1 µM | > 100 µM | > 100 µM | – | 65.2 µM | > 100 µM
